Assay [1] deals with Moloney murine leukemia virus (MoLV). The assay can be described thus: in vitro XC plaque assay: inhibition of murine leukemia virus plaque growth (mouse SC-1 cells, rat XC cells). It counts as cell-based. To be noted: SC1, compounds added 2 hours prior to virus, read-out: IC50 (concentration giving a 50% inhibition of virus plaque growth). As for the experimental part: This assay was performed according to the method of Rowe et al. (Virology, 1970, 42, 1136-39) as previously described by L. Hsu, et al. (J. Virological Methods, 1980, 1, 167-77) and T. L. Bowlin and M. R. Proffitt (J. Interferon Res., 983, 3(1), 19-31). Mouse SC-1 cells (fibroblast) (10^5) were seeded into each well of 6-well cluster plates (Costar #3506) in 4 ml Minimum Essential Medium (MEM) with 10% Fetal Calf Serum (FCS). Following an 18 hour incubation period (37° C.), Moloney murine leukemia virus (MoLV) was applied at a predetermined titer to give optimal (i.e. countable) numbers of virus plaques. Compounds were added 2 hours prior to addition of the virus. Three days later the culture medium was removed, the SC-1 cell monolayers were exposed to UV irradiation (1800 ergs), and rat XC cells (10^6) were seeded into each well in 4 ml MEM. Following an additional 3 day incubation (37° C.), these cells were fixed with ethyl alcohol (95%) and stained with 0.3% crystal violet. Plaques were then counted under low magnification. The antiviral activities of various compounds of this invention are tabulated in Table I in terms of the IC50, i,e, the concentration giving a 50% inhibition of virus plaque growth.

Assay [2] has as its system HIVlGB8 strain of HIV-1. The experiment in a line: anti-HIV activity in JM T-cells pretreated with HIV-1 (syncytial cell count and p24 antigen). The format is cell-based. The following applies: after 4 days; for Syncytial count: untreated 29. As for the experimental part: To further confirm the antiretroviral activity of these compounds, 6-(4-phenylphenoxy)hexan-1-ol was evaluated for activity against HIV. Following overnight pretreatment of T-cells (JM cells) with the HIVlGB8 strain of HIV-1, 6-(4-phenylphenoxy)hexan-1-ol was added to the cell cultures at concentrations of 15 and 7.5 μg/ml. After 4 days the number of synctial cells in the cell culture and the amount of p24 antigen, also a measure of viral replication, were determined.

Assay [3] has as its system HIV and other retroviruses. The following applies: previously shown; cited from earlier work.

Values after ≈ are worked out from the molar mass of the structure shown.

In general, inhibition refers to the relative decrease from the control value, in per cent.

On to `OCCCCOc1ccc(OCc2ccccc2)cc1` [4-(4-Benzyloxyphenoxy)butan-1-ol, 4-(4-Benzyloxyphenoxy)-butan-1-ol], for which the IC50 in assay [1] is 1 to 10 µg/mL (≈ 3.67 to 36.7 µM).

Consider `Cc1cc(C)c(OCCCCCCO)c(C)c1` [6-(2,4,6-Trimethylphenoxy)hexan-1-ol, 6-(2,4,6-trimethylphenoxy)hexan-1-ol], for which the IC50 in assay [1] came to 5 µg/mL (≈ 21.2 µM).

`OCCCCCCOc1ccc2ccccc2c1` [6-(2-Naphthylenyloxy)hexan-1-ol, 6-(2-naphthylenyloxy)hexan-1-ol]: in assay [1], the IC50 was 5 to 10 µg/mL (≈ 20.5 to 40.9 µM).

With `OCCCCCCOc1ccc(OCc2ccccc2)cc1` [6-(4-Benzyloxyphenoxy)hexan-1-ol], in assay [1], the IC50 lay in the range of 1 to 10 µg/mL (≈ 3.33 to 33.3 µM).

Consider `OCCCCCCOc1ccc(Cc2ccccc2)cc1` [6-(4-Benzylphenoxy)hexan-1-ol], for which the IC50 in assay [1] was 1 to 10 µg/mL (≈ 3.52 to 35.2 µM).

For `O=C(O)CCC(=O)OCCCCCCOc1ccc(-c2ccccc2)cc1` [6-(4-PhenYlphenoxV)-1-hexYl succinate (monoester)], in assay [1], the IC50 fell in the range of 1 to 10 µg/mL.

For `OCCCCCCOc1ccc(-c2ccccc2)cc1` [6-(4-Phenylphenoxy)hexan-1-ol], the IC50 in assay [1] lay within 2.5 to 5 µg/mL (≈ 9.25 to 18.5 µM). Moreover, the Syncytial count in assay [2] (7.5 μg/ml) is 8; in assay [2] (15 μg/ml), 0. Besides, in assay [2] (15 μg/ml, untreated 801), the P24 antigen is 62 pg × 10^3 /ml. The inhibition at 7.5 µg/mL in assay [2] (Human immunodeficiency virus 1, T-cell, 96 h, 7.5 μg/ml, syncytial count vs untreated) is 72%. The inhibition at 15 µg/mL in assay [2] (Human immunodeficiency virus 1, T-cell, 96 h, 15 μg/ml, syncytial count vs untreated) is 100%.

Consider `OCCCCCCOc1ccccc1` [6-Phenoxyhexan-1-ol, 6-phenoxyhexan-1-ol], for which the IC50 in assay [1] stood at 1 µg/mL (≈ 5.15 µM).

Take `O[C@H]1[C@H](O)[C@@H](O)CN2CC[C@H](O)[C@H]12` [castanospermine]: the “activity against HIV and other retroviruses” value in assay [3] is “activity against HIV and other retroviruses”.

As to heparin, the “activity against HIV and other retroviruses” value in assay [3] is “activity against HIV and other retroviruses”.

The values above are taken from patent publication US4939173A, “Aryloxy alkanols as anti-retrovirus agents” (Merrell Dow Pharmaceuticals Inc., priority 1988, dated 1990).
